Read-outs that look alike come from different tables or passages of the source. {Fluorescein} = fluorescein label
Experiments:
[1] = target: T1, HuR protein interaction with the ARE site of Msi1 mRNA (HuR-Msi1^ARE) (Homo sapiens, UniProt Q15717); assay: Fluorescence polarization (FP) assay, inhibition of HuR-Msi1 ARE interaction; format: binding; settings: full-length human HuR, read-out: Ki via FP assay
T1 construct: full-length human HuR protein was produced by the KU COBRE-PSF Protein Purification Group; made in house
T1 sequence (Q15717 whole entry): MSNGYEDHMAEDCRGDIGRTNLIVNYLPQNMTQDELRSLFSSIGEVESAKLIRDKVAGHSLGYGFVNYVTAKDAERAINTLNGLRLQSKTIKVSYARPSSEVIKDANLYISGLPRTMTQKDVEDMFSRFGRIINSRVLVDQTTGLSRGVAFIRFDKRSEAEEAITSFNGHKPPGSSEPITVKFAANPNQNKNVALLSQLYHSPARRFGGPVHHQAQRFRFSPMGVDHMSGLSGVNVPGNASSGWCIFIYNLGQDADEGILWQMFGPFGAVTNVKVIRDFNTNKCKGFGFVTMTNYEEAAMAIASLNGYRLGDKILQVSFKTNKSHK
Description: (§1) A fluorescence polarization (FP)-based binding assay was utilized to assess the inhibition of HuR protein interaction with the ARE site of Msi1 mRNA (“HuR-Msi1^ARE”) by compounds of interest. Briefly, full-length human HuR protein was produced by the KU COBRE-PSF Protein Purification Group and Bcl2, Msi1 and XIAP mRNA sequences (16 nt) were designed based on literature precedent^23,24,31,32. Fluorescein labeled RNAs were purchased from Dharmacon with the following sequences: Msi1 RNA: 5′-GCUUUUAUUUAUUUUG-3′-fluorescein; Bcl-2 RNA: 5′-AAAAGAUUUAUUUAUU-3′-fluorescein; XIAP RNA: 5′-UAGUUAUUUUUA UGUC-3′-fluorescein, and a 16-nt degenerative RNA with 3′-fluorescein label was used as a negative control.

[2] = tested on: HCT116 β/w; assay: Cytotoxicity assay (WST-8); format: cell-based; settings: Homo sapiens, HCT-116, 96 h incubation
Method: (§2) Cells were seeded in 96-well culture plates (5,000 cells/well) and treated with titrated compounds in triplicate. After 96 h incubation, cell growth medium was removed and proliferation reagent WST-8 (Sigma) was added to each well and incubated at 37° C. for 1-3 h. Absorbance was then measured with a plate reader at 450 nm with correction at 650 nm. The results were expressed as the percentage of absorbance of treated wells versus that of vehicle control.

[3] = tested on: MIAPaCa-2; assay: Cytotoxicity assay (WST-8); format: cell-based; settings: Homo sapiens, MIA PaCa-2, 96 h incubation
Method: as §2

[4] = tested on: MDA-MB-231; assay: Cytotoxicity assay (WST-8); format: cell-based; settings: Homo sapiens, read-out: Cytotoxicity (IC50, μM) MDA-MB-231
Method: as §2, with “The cytotoxicity of the tested compounds in several cancer cell lines (HCT116 β/w, MIAPaCa-2, and MDA-MB-231) was determined by a cytotoxicity assay, where the results are provided in Table 1. Cells” for “Cells”, “control. IC50, the drug concentration causing 50% growth inhibition, was calculated via sigmoid curve fitting using GraphPad Prism 5.0. […]” for “control.”

[5] = target: T2, full-length human HuR protein (Homo sapiens, UniProt Q15717); assay: FP-based binding of fluorescein-labeled RNAs to HuR; settings: 16 nt RNA oligo, FITC-RNA 2 nM; read-out: Kd of HuR binding with fluorescein-labeled target RNA
T2 construct: full-length human HuR protein was produced by the KU COBRE-PSF Protein Purification Group; made in house
T2 sequence (Q15717 whole entry): as above
Method: FIG. 3 provides the results of a fluorescence polarization (FP)-based binding assay, illustrating that full length HuR binds to FITC-Bcl-2, Msi1, and XIAP RNA but not to scrambled oligo-FITC, according to the working examples. The concentration of FITC-RNA used in the assay is 2 nM.
as §1

[6] = tested on: doxorubicin-resistant MDA-MB-231 cell line (231-DR); assay: Cytotoxicity assay, doxorubicin-resistant cells; format: cell-based; settings: 231-DR vs MDA-MB-231
Method: (§3) To further mimic clinical conditions and assess overcoming acquired chemo-resistance via compounds of the present technology, docetaxel-resistant and doxorubicin-resistant MDA-MB-231 cells were generated by continuous exposure of cells to increasing concentrations of docetaxel (TXT) or doxorubicin (DXR). Cytotoxicity assays were then performed to assess the chemo-resistance of the produced cell lines as well as assess the sensitivity of such chemo-resistant cell lines to compounds of the present technology.
(§4) Cytotoxicity assays were then performed utilizing concentrations of KH-3 that were below the lethal threshold for the compound (a “sub-lethal concentration”) in combination with docetaxel or doxorubicin to determine whether compounds of the present technology may sensitize cancer cell lines (including chemo-resistance cancer cell lines) to chemotherapy. FIGS. 11A-11B illustrate that sub-lethal concentrations of KH-3 sensitizes both MDA-MB-231 cells and docetaxel-resistant 231-TR cells to docetaxel treatment (FIGS. 11A-11B), and FIGS. 11C-D illustrate that sub-lethal concentrations of KH-3 sensitizes both MDA-MB-231 cells and doxorubicin-resistant 231-DR cells to doxorubicin treatment (FIGS. 11C-11D).

[7] = tested on: protein levels of HuR targets in MDA-MB-231 cells; assay: Western blot of HuR targets; format: cell-based
Method: (§5) As HuR promotes stability of its target mRNAs, it is expected that HuR-inhibitors will block HuR function and shorten the half-life (t1/2) of target mRNAs. mRNA stability was determined via quantitative real-time PCR (qRT-PCR) after co-treatment of compounds of the present technology and Actinomycin D (a transcription inhibitor). […] Because HuR also increases the translation of target mRNAs, the effect of compounds of the present technology was tested on protein levels of HuR targets by Western blot analysis.

[8] = tested on: protein levels of HuR targets in HCT-116 β/w cells; assay: Western blot of HuR targets; format: cell-based
Method: as §5

[9] = tested on: HuR target mRNAs (Bcl-2, XIAP, Msi1, HuR) in HCT-116 β/w cells; assay: mRNA stability by qRT-PCR after co-treatment with Actinomycin D; format: cell-based; parameters: dose or concentration left out as unconfirmed
Method: HuR target mRNA levels were measured by qRT-PCR.
as §5

[10] = tested on: PARP cleavage, LC3 conversion, and RIP3 activation; assay: Western blot of cell death mechanisms; format: cell-based
Description: FIGS. 8A-8C provide the results of Western blot analysis illustrating that KH-3 decreases the protein levels of HuR targets in HCT-116 β/w cells (FIG. 8A) and MDA-MB-231 cells (FIG. 8B) and is involved in cell death mechanisms by inducing PARP cleavage, LC3 conversion, and RIP3 activation (FIG. 8C), according to the working examples.
as §5

[11] = tested on: docetaxel-resistant MDA-MB-231 cell line (231-TR); assay: Cytotoxicity assay, docetaxel-resistant cells; format: cell-based; settings: 231-TR vs MDA-MB-231
Method: as §3, §4

[12] = tested on: Musashi 2 (Msi2) mRNA in PC3 cells; assay: mRNA level of HuR target after chemotherapy; format: cell-based
Description: FIGS. 1A-1F provide the results of studies illustrating RNA-binding protein Hu antigen R (HuR) is involved in chemo/radiation-induced tumor response, according to the working examples. […] HuR knock-down by siRNA sensitized cancer cells to X-ray radiation, with an enhancement ratio (ER) of 1.5 versus the negative control (NC) siRNA (FIG. 1F).

[13] = MDA-MB-231, 96 h incubation, WST-8

Row | Compound | Ki [1] [µM] | IC50 [2] [µM] | IC50 [3] [µM] | IC50 [4, 13] [µM] | further results
1 | Cc1ccc(S(=O)(=O)Nc2ccc3sc(/C=C/C(=O)O)cc3c2)cc1 [KH-2A, (E)-3-(5-(4-methylphenylsulfonamido)benzo[b]thiophen-2-yl)acrylic acid] | 2.92 | > 100 | > 100 | > 100 | 
2 | CCOC(=O)/C=C/c1cc2cc(NS(=O)(=O)c3ccc(C)cc3)ccc2s1 [KH-2B, (E)-ethyl 3-(5-(4-methylphenylsulfonamido)benzo[b]thiophen-2-yl)acrylate] | > 20 | 40.1 | 39.5 | 43 | 
3 | O=C(/C=C/c1cc2cc(NS(=O)(=O)c3ccccc3)ccc2s1)NO [KH-1] | 9.2 | 0.86 | 1.21 |  | IC50 ([4]; MDA-MB-231, 96 h): 0.98 µM
4 | CCOC(=O)/C=C/c1cc2cc(NS(=O)(=O)c3c(C)cc(C)cc3C)ccc2s1 [KH-4B, (E)-ethyl 3-(5-(2,4,6-trimethylphenylsulfonamido)benzo[b]thiophen-2-yl)acrylate] | > 20 | 91.4 | 30.4 | > 100 | 
5 | Bcl-2 RNA: Fluorescein labeled 16 nt RNA 5′-AAAAGAUUUAUUUAUU-3′-fluorescein (RNA, 3' {Fluorescein}, backbone not given here) |  |  |  |  | Kd [5]: 0.0063 µM
6 | Cc1cc(C)c(S(=O)(=O)Nc2ccc3sc(/C=C/C(=O)NO)cc3c2)c(C)c1 [KH-4] | 1.41 |  |  |  | IC50 ([4]; MDA-MB-231, 96 h): 1.04 µM
7 | O=C(O)/C=C/c1cc2cc(NS(=O)(=O)c3ccccc3)ccc2s1 [KH-1A, (E)-3-(5-(phenylsulfonamido)benzo[b]thiophen-2-yl)acrylic acid] | 5.82 | > 100 | > 100 | > 100 | 
8 | Msi1 RNA: Fluorescein labeled 16 nt RNA 5′-GCUUUUAUUUAUUUUG-3′-fluorescein (RNA, 3' {Fluorescein}, backbone not given here) |  |  |  |  | Kd [5]: 0.002 µM
9 | COc1cccc2c1C(=O)c1c(O)c3c(c(O)c1C2=O)C[C@@](O)(C(=O)CO)C[C@@H]3O[C@H]1C[C@H](N)[C@H](O)[C@H](C)O1 [doxorubicin] |  |  |  |  | IC50 in 231-DR compared to parental cell line [6]: about 10 fold
10 | CC(C)(C)c1ccc(S(=O)(=O)Nc2ccc3sc(/C=C/C(=O)O)cc3c2)cc1 [KH-3A, (E)-3-(5-(4-(tert-butyl)phenylsulfonamido)benzo[b]thiophen-2-yl)acrylic acid] | 1.38 | > 100 | > 100 | > 100 | 
11 | XIAP RNA: Fluorescein labeled 16 nt RNA 5′-UAGUUAUUUUUA UGUC-3′-fluorescein (UAGUUAUUUUUAUGUC; RNA, 3' {Fluorescein}, backbone not given here) |  |  |  |  | Kd [5]: 0.0035 µM
12 | CCOC(=O)/C=C/c1cc2cc(NS(=O)(=O)c3ccc(C(C)(C)C)cc3)ccc2s1 [KH-3B, (E)-ethyl 3-(5-(4-(tert-butyl)phenylsulfonamido)benzo[b]thiophen-2-yl)acrylate] | > 20 | 68.2 | 45.5 | 45.6 | protein levels of HuR targets [7]: not exhibited; protein levels of HuR targets [8]: not exhibited; stability of HuR target mRNAs (Bcl-2, XIAP, Msi1, HuR mRNA) [9]: not exhibited; cell death mechanisms (PARP cleavage, LC3 conversion, RIP3 activation) [10]: not exhibited
13 | Cc1cc(C)c(S(=O)(=O)Nc2ccc3sc(/C=C/C(=O)O)cc3c2)c(C)c1 [KH-4A, (E)-3-(5-(2,4,6-trimethylphenylsulfonamido)benzo[b]thiophen-2-yl)acrylic acid] | 2.92 | > 100 | > 100 | > 100 | 
14 | CC(=O)O[C@@]12CO[C@@H]1C[C@H](O)[C@@]1(C)C(=O)[C@H](O)C3=C(C)[C@@H](OC(=O)[C@H](O)[C@@H](NC(=O)OC(C)(C)C)c4ccccc4)C[C@@](O)([C@@H](OC(=O)c4ccccc4)[C@H]21)C3(C)C [docetaxel] |  |  |  |  | IC50 in 231-TR compared to parental cell line [11]: more than 8 fold; mRNA levels of HuR target Musashi 2 (Msi2) [12]: increased the mRNA levels
15 | CCOC(=O)/C=C/c1cc2cc(NS(=O)(=O)c3ccccc3)ccc2s1 [KH-1B, (E)-ethyl 3-(5-(phenylsulfonamido)benzo[b]thiophen-2-yl)acrylate] | > 20 | 35.6 | 37.6 | 41.8 | 
16 | Cc1ccc(S(=O)(=O)Nc2ccc3sc(/C=C/C(=O)NO)cc3c2)cc1 [KH-2] | 5.55 | 1.42 | 2.33 |  | IC50 ([4]; MDA-MB-231, 96 h): 1.46 µM

Reference: patent US20230131501A1, “THERAPEUTIC USES OF INHIBITORS OF THE RNA-BINDING PROTEIN HuR” (University of Kansas, priority 2020, published 2023)
